From PubChem BioAssay AID330 (DTP/NCI, 2004)
Where “and” joins values, the source holds several entries; their conditions need not be identical. Identical values can stand only once. Toxic doses and inconclusive results are not listed. The calls were made as follows: active = survival T/C of 150% or more; inactive = T/C below 125% in these data.

Tested on: P388 leukemia ip, CD2F1 mice, survival T/C
Experiment: NCI In Vivo Anticancer Drug Screen. Data for tumor model P388 Leukemia (intraperitoneal) in CD2F1 (CDF1) mice
Conditions: endpoint: median survival time, higher = longer survival
Summary of the method: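 Mice carrying the transplanted tumor received test compound or vehicle. Survival was recorded in each group, and the value is the treated-group measurement divided by that of the vehicle-treated control group.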

[1] = dose: 25.0 mg/kg/injection, schedule: Q04DX002 (ip), vehicle: saline
[2] = dose: 50.0 mg/kg/injection, schedule: Q04DX002 (ip), vehicle: saline
[3] = dose: 100.0 mg/kg/injection, schedule: Q04DX002 (ip), vehicle: saline
[4] = dose: 50.0 mg/kg/injection, schedule: Q01DX009 (ip), vehicle: saline
[5] = dose: 100.0 mg/kg/injection, schedule: Q01DX009 (ip), vehicle: saline
[6] = dose: 200.0 mg/kg/injection, schedule: Q01DX009 (ip), vehicle: saline
[7] = dose: 50.0 mg/kg/injection, schedule: Q01DX009 (ip), vehicle: Klucel (hydroxypropylcellulose) (HPC)
[8] = dose: 50.0 mg/kg/injection, schedule: Q01DX005 (ip), vehicle: Klucel (hydroxypropylcellulose) (HPC)
[9] = dose: 100.0 mg/kg/injection, schedule: Q01DX005 (ip), vehicle: Klucel (hydroxypropylcellulose) (HPC)
[10] = dose: 200.0 mg/kg/injection, schedule: Q01DX005 (ip), vehicle: Klucel (hydroxypropylcellulose) (HPC)

Measured: T/C

COc1cccc2c1C(=O)c1c(O)c3c(c(O)c1C2=O)C[C@@](O)(CCO)C[C@@H]3OC1CC(N)C(O)C(C)O1 (some centres not stated)
active: dose: 0.39 mg/kg/injection, schedule: Q01DX009 (ip), vehicle: water 151 % of control | dose: 0.78 mg/kg/injection, schedule: Q01DX009 (ip), vehicle: water 158 % of control and 164 % of control | dose: 1.56 mg/kg/injection, schedule: Q01DX009 (ip), vehicle: water 153 % of control and 158 % of control | dose: 3.13 mg/kg/injection, schedule: Q01DX009 (ip), vehicle: water 163 % of control and 164 % of control | dose: 6.25 mg/kg/injection, schedule: Q01DX009 (ip), vehicle: water 153 % of control | dose: 9.4 mg/kg/injection, schedule: Q04DX003 (ip), vehicle: water 154 % of control | dose: 18.8 mg/kg/injection, schedule: Q04DX003 (ip), vehicle: water 158 % of control
inactive: dose: 1.2 mg/kg/injection, schedule: Q04DX003 (ip), vehicle: water 119 % of control | dose: 2.4 mg/kg/injection, schedule: Q04DX003 (ip), vehicle: water 106 % of control and 112 % of control | dose: 4.7 mg/kg/injection, schedule: Q04DX003 (ip), vehicle: water 120 % of control | dose: 75.0 mg/kg/injection, schedule: Q04DX003 (ip), vehicle: water 97 % of control

O=C1CSC(=S)N1/N=C/c1ccccc1
inactive: [1] 100 % of control | [2] 105 % of control | [3] 98 % of control

CC(C)CC([NH-])C(=O)O.[C-]#[O+].[C-]#[O+].[Rh] (configuration not stated)
inactive: dose: 6.25 mg/kg/injection, schedule: Q01DX009 (ip), vehicle: saline with Tween-80 113 % of control | dose: 12.5 mg/kg/injection, schedule: Q01DX009 (ip), vehicle: saline with Tween-80 115 % of control | dose: 25.0 mg/kg/injection, schedule: Q01DX009 (ip), vehicle: saline with Tween-80 109 % of control

CCOC(=O)C(CC(C)C(C)=O)C(=O)OCC (configuration not stated)
inactive: dose: 12.5 mg/kg/injection, schedule: Q01DX009 (ip), vehicle: other 93 % of control | dose: 25.0 mg/kg/injection, schedule: Q01DX009 (ip), vehicle: other 90 % of control | dose: 50.0 mg/kg/injection, schedule: Q01DX009 (ip), vehicle: other 94 % of control | dose: 100.0 mg/kg/injection, schedule: Q01DX009 (ip), vehicle: other 97 % of control | dose: 200.0 mg/kg/injection, schedule: Q01DX009 (ip), vehicle: other 103 % of control

CCOC(=O)COc1ccc2c(=O)c(C)c(-c3ccccc3)oc2c1
inactive: [4] 97 % of control | [5] 101 % of control | [6] 97 % of control

CC(=O)OCc1c(COC(C)=O)c(-c2ccc(Cl)cc2)n2c1CCC2
inactive: [7] 118 % of control

CC1C(=O)OC2C1CCC1(C)C3(C)C(=O)C=CC213 (configuration not stated)
inactive: dose: 15.0 mg/kg/injection, schedule: Q01DX005 (ip), vehicle: Klucel (hydroxypropylcellulose) (HPC) 97 % of control | dose: 30.0 mg/kg/injection, schedule: Q01DX005 (ip), vehicle: Klucel (hydroxypropylcellulose) (HPC) 101 % of control | dose: 60.0 mg/kg/injection, schedule: Q01DX005 (ip), vehicle: Klucel (hydroxypropylcellulose) (HPC) 104 % of control and 93 % of control

Nc1ncnc2c1c1c(=S)nc[nH]c1n2C1OC(CO)C(O)C1O (configuration not stated)
active: dose: 25.0 mg/kg/injection, schedule: Q01DX009 (ip), vehicle: water 158 % of control | dose: 50.0 mg/kg/injection, schedule: Q01DX009 (ip), vehicle: water 165 % of control | dose: 100.0 mg/kg/injection, schedule: Q01DX009 (ip), vehicle: water 177 % of control

Cn1c(=O)[nH]c(=O)c2nc(-c3ccc(Cl)cc3)cnc21
inactive: dose: 100.0 mg/kg/injection, schedule: Q04DX002 (ip), vehicle: saline with Tween-80 94 % of control | dose: 200.0 mg/kg/injection, schedule: Q04DX002 (ip), vehicle: saline with Tween-80 97 % of control | dose: 400.0 mg/kg/injection, schedule: Q04DX002 (ip), vehicle: saline with Tween-80 97 % of control

Nc1nc(N)c(Cc2ccncc2)cc1Cc1ccncc1
inactive: [8] 112 % of control | [9] 101 % of control | [10] 111 % of control

O=CC(NC(=O)CCCc1ccc(N(CCCl)CCCl)cc1)C(O)C(O)C(O)CO (configuration not stated)
active: dose: 12.5 mg/kg/injection, schedule: Q01DX009 (ip), vehicle: Klucel (hydroxypropylcellulose) (HPC) 204 % of control and 215 % of control | dose: 25.0 mg/kg/injection, schedule: Q01DX009 (ip), vehicle: Klucel (hydroxypropylcellulose) (HPC) 211 % of control and 227 % of control
inactive: [7] 105 % of control and 86 % of control and 89 % of control

O=C1CCCc2cc3c(nc21)C(=O)CCC3
inactive: [8] 100 % of control | [9] 100 % of control | [10] 109 % of control

CC(OS(C)(=O)=O)/C(Br)=C(/Br)C(C)OS(C)(=O)=O (configuration not stated)
active: dose: 100.0 mg/kg/injection, schedule: Q01DX001 (ip), vehicle: Klucel (hydroxypropylcellulose) (HPC) 158 % of control | dose: 200.0 mg/kg/injection, schedule: Q01DX001 (ip), vehicle: Klucel (hydroxypropylcellulose) (HPC) 204 % of control | dose: 400.0 mg/kg/injection, schedule: Q01DX001 (ip), vehicle: Klucel (hydroxypropylcellulose) (HPC) 230 % of control

C[n+]1ccc(C[n+]2ccccc2)c2ccccc21
inactive: dose: 50.0 mg/kg/injection, schedule: Q01DX005 (ip), vehicle: saline 104 % of control | dose: 100.0 mg/kg/injection, schedule: Q01DX005 (ip), vehicle: saline 100 % of control | dose: 200.0 mg/kg/injection, schedule: Q01DX005 (ip), vehicle: saline 96 % of control

CCN(CC)CCNc1c(OC)c(OC)cc2nccnc12
inactive: dose: 25.0 mg/kg/injection, schedule: Q01DX005 (ip), vehicle: suspension in saline 98 % of control | dose: 50.0 mg/kg/injection, schedule: Q01DX005 (ip), vehicle: suspension in saline 98 % of control | dose: 100.0 mg/kg/injection, schedule: Q01DX005 (ip), vehicle: suspension in saline 98 % of control

C/C=C\c1noc2c1C(=O)OC(C)C2 (configuration not stated)
inactive: dose: 60.0 mg/kg/injection, schedule: Q01DX005 (ip), vehicle: saline with Tween-80 104 % of control | dose: 120.0 mg/kg/injection, schedule: Q01DX005 (ip), vehicle: saline with Tween-80 96 % of control | dose: 240.0 mg/kg/injection, schedule: Q01DX005 (ip), vehicle: saline with Tween-80 103 % of control

O=C1C(CO)=C[C@H](O)[C@@]2(CO)O[C@@H]12
inactive: dose: 6.25 mg/kg/injection, schedule: Q04DX002 (ip), vehicle: saline 100 % of control | dose: 12.5 mg/kg/injection, schedule: Q04DX002 (ip), vehicle: saline 107 % of control | [1] 107 % of control | [2] 100 % of control | [3] 121 % of control

CC[N+](C)(CC)c1ccccc1
inactive: [1] 103 % of control | [2] 104 % of control

CCN(Cc1ccc(CN(CC)C(=O)c2sc3ccccc3c2Cl)cc1)C(=O)c1sc2ccccc2c1Cl
inactive: [4] 101 % of control | [5] 100 % of control | [6] 93 % of control

O=Cc1cccc(C=O)c1
inactive: dose: 0.63 mg/kg/injection, schedule: Q04DX002 (ip), vehicle: saline with Tween-80 106 % of control | dose: 1.25 mg/kg/injection, schedule: Q04DX002 (ip), vehicle: saline with Tween-80 105 % of control | dose: 2.5 mg/kg/injection, schedule: Q04DX002 (ip), vehicle: saline with Tween-80 107 % of control

CCCC[P+](c1ccccc1)(c1ccccc1)c1ccccc1
inactive: dose: 5.0 mg/kg/injection, schedule: Q01DX009 (ip), vehicle: saline sonified 118 % of control | dose: 10.0 mg/kg/injection, schedule: Q01DX009 (ip), vehicle: saline sonified 122 % of control | dose: 13.2 mg/kg/injection, schedule: Q01DX009 (ip), vehicle: saline sonified 118 % of control | dose: 20.0 mg/kg/injection, schedule: Q01DX009 (ip), vehicle: saline sonified 118 % of control | dose: 30.0 mg/kg/injection, schedule: Q01DX009 (ip), vehicle: saline sonified 90 % of control

CCOC(=O)C(=O)N(CCCNc1c2ccccc2nc2c(OC)cccc12)CCCNc1c2ccccc2nc2c(OC)cccc12
active: dose: 10.0 mg/kg/injection, schedule: Q01DX009 (ip), vehicle: water 161 % of control
inactive: dose: 1.25 mg/kg/injection, schedule: Q01DX009 (ip), vehicle: water 120 % of control | dose: 2.5 mg/kg/injection, schedule: Q01DX009 (ip), vehicle: water 120 % of control
